Results from publication PMC7156458, “Synthetic biology based construction of biological activity-related library of fungal decalin-containing diterpenoid pyrones” (Nature Communications, 2020).

Molecular target: Aβ42 (Homo sapiens, UniProt P05067)
Assay: Th-T (thioflavin-T) assay of Aβ42 aggregation
Format: biochemical
Details: for Th-T assay plate reading, mean of three wells (Supplementary Fig. 47): source data, Ab alone and No Ab as controls

Sequence of Aβ42 (P05067 672-713): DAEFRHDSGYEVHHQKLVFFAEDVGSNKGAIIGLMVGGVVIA

- Th-T fluorescence, mean of three wells (Aβ42 aggregation time course, reading M117): 3.93
- Th-T fluorescence, mean of three wells (Aβ42 aggregation time course, reading M118): 3.9367
- Th-T fluorescence, mean of three wells (Aβ42 aggregation time course, reading M119): 3.915
- Th-T fluorescence, mean of three wells (Aβ42 aggregation time course, reading M120): 3.905
- Th-T fluorescence, mean of three wells (Aβ42 aggregation time course, reading M121): 3.903
- Th-T fluorescence, mean of three wells (Aβ42 aggregation time course, reading M122): 3.899
- Th-T fluorescence, mean of three wells (Aβ42 aggregation time course, reading M123): 3.9273
- Th-T fluorescence, mean of three wells (Aβ42 aggregation time course, reading M124): 3.899
- Th-T fluorescence, mean of three wells (Aβ42 aggregation time course, reading M125): 3.909
- Th-T fluorescence, mean of three wells (Aβ42 aggregation time course, reading M126): 3.889
- Th-T fluorescence, mean of three wells (Aβ42 aggregation time course, reading M127): 3.86
- Th-T fluorescence, mean of three wells (Aβ42 aggregation time course, reading M128): 3.875
- Th-T fluorescence, mean of three wells (Aβ42 aggregation time course, reading M129): 3.876
- Th-T fluorescence, mean of three wells (Aβ42 aggregation time course, reading M130): 3.844
- Th-T fluorescence, mean of three wells (Aβ42 aggregation time course, reading M131): 3.869
- Th-T fluorescence, mean of three wells (Aβ42 aggregation time course, reading M132): 3.865
- Th-T fluorescence, mean of three wells (Aβ42 aggregation time course, reading M133): 3.8524
- Th-T fluorescence, mean of three wells (Aβ42 aggregation time course, reading M134): 3.8749
- Th-T fluorescence, mean of three wells (Aβ42 aggregation time course, reading M135): 3.85
- Th-T fluorescence, mean of three wells (Aβ42 aggregation time course, reading M136): 3.855
- Th-T fluorescence, mean of three wells (Supplementary Fig. 47, reading M137): 3.87
- Th-T fluorescence, mean of three wells (Supplementary Fig. 47, reading M138): 3.855
- Th-T fluorescence, mean of three wells (Supplementary Fig. 47, reading M139): 3.871
- Th-T fluorescence, mean of three wells (Supplementary Fig. 47, reading M140): 3.832
- Th-T fluorescence, mean of three wells (Supplementary Fig. 47, reading M141): 3.853
- Th-T fluorescence, mean of three wells (Supplementary Fig. 47, reading M142): 3.823
- Th-T fluorescence, mean of three wells (Supplementary Fig. 47, reading M143): 3.843
- Th-T fluorescence, mean of three wells (Supplementary Fig. 47, reading M144): 3.8288
- Th-T fluorescence, mean of three wells (Supplementary Fig. 47, reading M145): 3.794
- Th-T fluorescence, mean of three wells (Supplementary Fig. 47 source data, measurement M37 of time course): 4.118
- Th-T fluorescence, mean of three wells (Supplementary Fig. 47 source data, measurement M38 of time course): 4.1
- Th-T fluorescence, mean of three wells (Supplementary Fig. 47 source data, measurement M39 of time course): 4.133
- Th-T fluorescence, mean of three wells (Supplementary Fig. 47 source data, measurement M40 of time course): 4.141
- Th-T fluorescence, mean of three wells (Supplementary Fig. 47 source data, measurement M41 of time course): 4.132
- Th-T fluorescence, mean of three wells (Supplementary Fig. 47 source data, measurement M42 of time course): 4.118
- Th-T fluorescence, mean of three wells (Supplementary Fig. 47 source data, measurement M43 of time course): 4.101
- Th-T fluorescence, mean of three wells (Supplementary Fig. 47 source data, measurement M44 of time course): 4.12
- Th-T fluorescence, mean of three wells (Supplementary Fig. 47 source data, measurement M45 of time course): 4.146
- Th-T fluorescence, mean of three wells (Supplementary Fig. 47 source data, measurement M46 of time course): 4.159
- Th-T fluorescence, mean of three wells (Supplementary Fig. 47 source data, measurement M47 of time course): 4.139
- Th-T fluorescence, mean of three wells (Supplementary Fig. 47 source data, measurement M48 of time course): 4.146
- Th-T fluorescence, mean of three wells (Supplementary Fig. 47 source data, measurement M49 of time course): 4.116
- Th-T fluorescence, mean of three wells (Supplementary Fig. 47 source data, measurement M50 of time course): 4.153
- Th-T fluorescence, mean of three wells (Supplementary Fig. 47 source data, measurement M51 of time course): 4.157
- Th-T fluorescence, mean of three wells (Supplementary Fig. 47 source data, measurement M52 of time course): 4.123
- Th-T fluorescence, mean of three wells (Supplementary Fig. 47 source data, measurement M53 of time course): 4.133
- Th-T fluorescence, mean of three wells (Supplementary Fig. 47 source data, measurement M54 of time course): 4.156
- Th-T fluorescence, mean of three wells (Supplementary Fig. 47 source data, measurement M55 of time course): 4.1334
- Th-T fluorescence, mean of three wells (Supplementary Fig. 47 source data, measurement M56 of time course): 4.113
- Th-T assay plate reading, mean of three wells (Supplementary Fig. 47) (measurement M1): 0.168
- Th-T assay plate reading, mean of three wells (Supplementary Fig. 47) (measurement M2): 0.1686
- Th-T assay plate reading, mean of three wells (Supplementary Fig. 47) (measurement M3): 0.1808
- Th-T assay plate reading, mean of three wells (Supplementary Fig. 47) (measurement M4): 0.1943
- Th-T assay plate reading, mean of three wells (Supplementary Fig. 47) (measurement M5): 0.213
- Th-T assay plate reading, mean of three wells (Supplementary Fig. 47) (measurement M6): 0.2405
- Th-T assay plate reading, mean of three wells (Supplementary Fig. 47) (measurement M7): 0.3234
- Th-T assay plate reading, mean of three wells (Supplementary Fig. 47) (measurement M8): 0.379
- Th-T assay plate reading, mean of three wells (Supplementary Fig. 47) (measurement M9): 0.4389
- Th-T assay plate reading, mean of three wells (Supplementary Fig. 47) (measurement M10): 0.7586
- Th-T assay plate reading, mean of three wells (Supplementary Fig. 47) (measurement M11): 1.544
- Th-T assay plate reading, mean of three wells (Supplementary Fig. 47) (measurement M12): 2.364
- Th-T assay plate reading, mean of three wells (Supplementary Fig. 47) (measurement M13): 2.959
- Th-T assay plate reading, mean of three wells (Supplementary Fig. 47) (measurement M14): 3.254
- Th-T assay plate reading, mean of three wells (Supplementary Fig. 47) (measurement M15): 3.396
- Th-T assay plate reading, mean of three wells (Supplementary Fig. 47) (measurement M16): 3.5133
- Th-T fluorescence, mean of three wells (reading M17, Supplementary Fig. 47 source data): 3.637
- Th-T fluorescence, mean of three wells (reading M18, Supplementary Fig. 47 source data): 3.688
- Th-T fluorescence, mean of three wells (reading M19, Supplementary Fig. 47 source data): 3.715
- Th-T fluorescence, mean of three wells (reading M20, Supplementary Fig. 47 source data): 3.759
- Th-T fluorescence, mean of three wells (reading M21, Supplementary Fig. 47 source data): 3.811
- Th-T fluorescence, mean of three wells (reading M22, Supplementary Fig. 47 source data): 3.836
- Th-T fluorescence, mean of three wells (reading M23, Supplementary Fig. 47 source data): 3.884
- Th-T fluorescence, mean of three wells (reading M24, Supplementary Fig. 47 source data): 3.963
- Th-T fluorescence, mean of three wells (reading M25, Supplementary Fig. 47 source data): 3.926
- Th-T fluorescence, mean of three wells (reading M26, Supplementary Fig. 47 source data): 3.978
- Th-T fluorescence, mean of three wells (reading M27, Supplementary Fig. 47 source data): 3.957
- Th-T fluorescence, mean of three wells (reading M28, Supplementary Fig. 47 source data): 4.012
- Th-T fluorescence, mean of three wells (reading M29, Supplementary Fig. 47 source data): 4.002
- Th-T fluorescence, mean of three wells (reading M30, Supplementary Fig. 47 source data): 4.039
- Th-T fluorescence, mean of three wells (reading M31, Supplementary Fig. 47 source data): 4.06
- Th-T fluorescence, mean of three wells (reading M32, Supplementary Fig. 47 source data): 4.053
- Th-T fluorescence, mean of three wells (reading M33, Supplementary Fig. 47 source data): 4.071
- Th-T fluorescence, mean of three wells (reading M34, Supplementary Fig. 47 source data): 4.107
- Th-T fluorescence, mean of three wells (reading M35, Supplementary Fig. 47 source data): 4.086
- Th-T fluorescence, mean of three wells (reading M36, Supplementary Fig. 47 source data): 4.108
- Th-T fluorescence, mean of three wells (time course, reading M57): 4.13
- Th-T fluorescence, mean of three wells (time course, reading M58): 4.119
- Th-T fluorescence, mean of three wells (time course, reading M59): 4.1173
- Th-T fluorescence, mean of three wells (time course, reading M60): 4.127
- Th-T fluorescence, mean of three wells (time course, reading M61): 4.118
- Th-T fluorescence, mean of three wells (time course, reading M62): 4.092
- Th-T fluorescence, mean of three wells (time course, reading M63): 4.112
- Th-T fluorescence, mean of three wells (time course, reading M64): 4.119
- Th-T fluorescence, mean of three wells (time course, reading M65): 4.128
- Th-T fluorescence, mean of three wells (time course, reading M66): 4.121
- Th-T fluorescence, mean of three wells (time course, reading M67): 4.11
- Th-T fluorescence, mean of three wells (time-course reading M97, Supplementary Fig. 47 source data): 3.985
- Th-T fluorescence, mean of three wells (time-course reading M98, Supplementary Fig. 47 source data): 4.028
- Th-T fluorescence, mean of three wells (time-course reading M99, Supplementary Fig. 47 source data): 3.988
- Th-T fluorescence, mean of three wells (time-course reading M100, Supplementary Fig. 47 source data): 4.004
- Th-T fluorescence, mean of three wells (time-course reading M101, Supplementary Fig. 47 source data): 3.9991
- Th-T fluorescence, mean of three wells (time-course reading M102, Supplementary Fig. 47 source data): 3.997
- Th-T fluorescence, mean of three wells (time-course reading M103, Supplementary Fig. 47 source data): 3.988
- Th-T fluorescence, mean of three wells (time-course reading M104, Supplementary Fig. 47 source data): 3.979
- Th-T fluorescence, mean of three wells (time-course reading M105, Supplementary Fig. 47 source data): 4.002
- Th-T fluorescence, mean of three wells (time-course reading M106, Supplementary Fig. 47 source data): 3.966
- Th-T fluorescence, mean of three wells (time-course reading M107, Supplementary Fig. 47 source data): 3.935
- Th-T fluorescence, mean of three wells (time-course reading M108, Supplementary Fig. 47 source data): 3.958
- Th-T fluorescence, mean of three wells (time-course reading M109, Supplementary Fig. 47 source data): 3.936
- Th-T fluorescence, mean of three wells (time-course reading M110, Supplementary Fig. 47 source data): 3.951
- Th-T fluorescence, mean of three wells (time-course reading M111, Supplementary Fig. 47 source data): 3.932
- Th-T fluorescence, mean of three wells (time-course reading M112, Supplementary Fig. 47 source data): 3.941
- Th-T fluorescence, mean of three wells (time-course reading M113, Supplementary Fig. 47 source data): 3.942
- Th-T fluorescence, mean of three wells (time-course reading M114, Supplementary Fig. 47 source data): 3.927
- Th-T fluorescence, mean of three wells (time-course reading M115, Supplementary Fig. 47 source data): 3.938
- Th-T fluorescence, mean of three wells (time-course reading M116, Supplementary Fig. 47 source data): 3.922
SMILES: C=C1CC[C@H]2[C@]3(C)C[C@H](C=C(C)C)O[C@H]3CC[C@]2(C)[C@@H]1Cc1c(OC)oc(C)c(C)c1=O [Compound 24]
